pIC50: −log10 of the molar value. Activity calls are given as the source filed them. The rule behind the calls is not given here.
How the values were obtained:
Dihydrofolate reductase = biological target: T1, Dihydrofolate reductase (Bos taurus, UniProt P00376); test: Inhibition of bovine liver DHFR
T1 sequence (P00376 whole entry): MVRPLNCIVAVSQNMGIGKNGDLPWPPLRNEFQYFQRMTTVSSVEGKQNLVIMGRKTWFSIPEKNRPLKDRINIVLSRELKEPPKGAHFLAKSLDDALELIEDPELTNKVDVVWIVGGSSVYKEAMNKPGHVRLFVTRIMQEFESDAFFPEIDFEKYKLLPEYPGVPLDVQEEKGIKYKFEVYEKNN

Staphylococcus aureus [1] = test: Antimicrobial activity against Staphylococcus aureus assessed as inhibition zone at 200 ug/disk after 24 hrs by disc-diffusion method; format: functional; conditions: for zone of inhibition at 200 µg/disc: read-out: IZ
Bacillus subtilis [2] = test: Antimicrobial activity against Bacillus subtilis assessed as inhibition zone at 200 ug/disk after 24 hrs by disc-diffusion method; format: functional; conditions: for zone of inhibition at 200 µg/disc: read-out: IZ
Escherichia coli [3] = test: Antimicrobial activity against Escherichia coli assessed as inhibition zone at 200 ug/disk after 24 hrs by disc-diffusion method; format: functional; conditions: for zone of inhibition at 200 µg/disc: read-out: IZ
Pseudomonas aeruginosa [4] = test: Antimicrobial activity against Pseudomonas aeruginosa assessed as inhibition zone at 200 ug/disk after 24 hrs by disc-diffusion method; format: functional; conditions: for zone of inhibition at 200 µg/disc: read-out: IZ
Candida albicans [5] = test: Antimicrobial activity against Candida albicans assessed as inhibition zone at 200 ug/disk after 24 hrs by disc-diffusion method; format: functional; conditions: for zone of inhibition at 200 µg/disc: read-out: IZ
Staphylococcus aureus [6] = test: Antimicrobial activity against Staphylococcus aureus assessed as inhibition of visible growth after 24 hrs by disc-diffusion method; format: functional, organism-based
Bacillus subtilis [7] = test: Antimicrobial activity against Bacillus subtilis assessed as inhibition of visible growth after 24 hrs by disc-diffusion method; format: functional, organism-based
K562 = test: Growth inhibition of human K562 cells at 10 uM after 48 hrs; format: functional; conditions: K562, 48 h, read-out: GI
[8] = Growth inhibition of human MOLT4 cells at 10 uM after 48 hrs; format: functional; conditions: MOLT-4, 48 h, read-out: GI
[9] = Growth inhibition of human RPMI8226 cells at 10 uM after 48 hrs; format: functional; conditions: RPMI-8226, 48 h, read-out: GI
SR = test: Growth inhibition of human SR cells at 10 uM after 48 hrs; format: functional; conditions: read-out: GI
[10] = Growth inhibition of human HOP92 cells at 10 uM after 48 hrs; format: functional; conditions: HOP-92, 48 h, read-out: GI
NCI-H226 = test: Growth inhibition of human NCI-H226 cells at 10 uM after 48 hrs; format: functional; conditions: NCI-H226, 48 h, read-out: GI
NCI-H23 = test: Growth inhibition of human NCI-H23 cells at 10 uM after 48 hrs; format: functional; conditions: NCI-H23, 48 h, read-out: GI
NCI-H522 = test: Growth inhibition of human NCI-H522 cells at 10 uM after 48 hrs; format: functional; conditions: NCI-H522, 48 h, read-out: GI
SF-268 = test: Growth inhibition of human SF268 cells at 10 uM after 48 hrs; format: functional; conditions: SF-268, 48 h, read-out: GI
[11] = Growth inhibition of human LOXIMVI cells at 10 uM after 48 hrs; format: functional; conditions: LOX IMVI, read-out: GI
Malme-3M = test: Growth inhibition of human MALME-3M cells at 10 uM after 48 hrs; format: functional; conditions: read-out: GI
[12] = Growth inhibition of human UACC62 cells at 10 uM after 48 hrs; format: functional; conditions: UACC-62, 48 h, read-out: GI
[13] = Growth inhibition of human OVCAR3 cells at 10 uM after 48 hrs; format: functional; conditions: OVCAR-3, 48 h, read-out: GI
[14] = Growth inhibition of human OVCAR4 cells at 10 uM after 48 hrs; format: functional; conditions: OVCAR-4, 48 h, read-out: GI
[15] = Growth inhibition of human UO31 cells at 10 uM after 48 hrs; format: functional; conditions: UO-31, 48 h, read-out: GI
[16] = Growth inhibition of human PC3 cells at 10 uM after 48 hrs; format: functional; conditions: PC-3, 48 h, read-out: GI
T47D = test: Growth inhibition of human T47D cells at 10 uM after 48 hrs; format: functional; conditions: read-out: GI
A549 = test: Growth inhibition of human A549 cells at 10 uM after 48 hrs; format: functional; conditions: A549, 48 h, read-out: GI
[17] = Growth inhibition of human HCT116 cells at 10 uM after 48 hrs; format: functional; conditions: HCT-116, 48 h, read-out: GI
[18] = Growth inhibition of human HCT15 cells at 10 uM after 48 hrs; format: functional; conditions: HCT-15, 48 h, read-out: GI
HT-29 = test: Growth inhibition of human HT-29 cells at 10 uM after 48 hrs; format: functional; conditions: HT-29, 48 h, read-out: GI
KM12 = test: Growth inhibition of human KM12 cells at 10 uM after 48 hrs; format: functional; conditions: KM12, 48 h, read-out: GI
[19] = Growth inhibition of human SF295 cells at 10 uM after 48 hrs; format: functional; conditions: SF-295, 48 h, read-out: GI
[20] = Growth inhibition of human SF539 cells at 10 uM after 48 hrs; format: functional; conditions: SF-539, 48 h, read-out: GI
SNB-19 = test: Growth inhibition of human SNB19 cells at 10 uM after 48 hrs; format: functional; conditions: SNB-19, 48 h, read-out: GI
U-251 = test: Growth inhibition of human U251 cells at 10 uM after 48 hrs; format: functional; conditions: U-251, 48 h, read-out: GI
M14 = test: Growth inhibition of human M14 cells at 10 uM after 48 hrs; format: functional; conditions: M14, 48 h, read-out: GI
SK-MEL-5 = test: Growth inhibition of human SK-MEL-5 cells at 10 uM after 48 hrs; format: functional; conditions: SK-MEL-5, 48 h, read-out: GI
[21] = Growth inhibition of human UACC257 cells at 10 uM after 48 hrs; format: functional; conditions: UACC-257, 48 h, read-out: GI
[22] = Growth inhibition of human OVCAR5 cells at 10 uM after 48 hrs; format: functional; conditions: OVCAR-5, 48 h, read-out: GI
[23] = Growth inhibition of human OVCAR8 cells at 10 uM after 48 hrs; format: functional; conditions: OVCAR-8, 48 h, read-out: GI
[24] = Growth inhibition of human NCI-ADR-RES cells at 10 uM after 48 hrs; format: functional; conditions: read-out: GI
786-0 = test: Growth inhibition of human 786-0 cells at 10 uM after 48 hrs; format: functional; conditions: 786-0, 48 h, read-out: GI
A498 = test: Growth inhibition of human A498 cells at 10 uM after 48 hrs; format: functional; conditions: A498, 48 h, read-out: GI
CAKI-1 = test: Growth inhibition of human CAKI-1 cells at 10 uM after 48 hrs; format: functional; conditions: CAKI-1, 48 h, read-out: GI
[25] = Growth inhibition of human RXF393 cells at 10 uM after 48 hrs; format: functional; conditions: RXF 393, 48 h, read-out: GI
SN12C = test: Growth inhibition of human SN12C cells at 10 uM after 48 hrs; format: functional; conditions: read-out: GI
MDA-MB-231 = test: Growth inhibition of human MDA-MB-231 cells at 10 uM after 48 hrs; format: functional; conditions: MDA-MB-231, 48 h, read-out: GI
[26] = Growth inhibition of human Hs 578T cells at 10 uM after 48 hrs; format: functional; conditions: read-out: GI
[27] = Growth inhibition of human BT549 cells at 10 uM after 48 hrs; format: functional; conditions: BT-549, 48 h, read-out: GI
Escherichia coli [28] = test: Antimicrobial activity against Escherichia coli assessed as inhibition of visible growth after 24 hrs by disc-diffusion method; format: functional, organism-based
Pseudomonas aeruginosa [29] = test: Antimicrobial activity against Pseudomonas aeruginosa assessed as inhibition of visible growth after 24 hrs by disc-diffusion method; format: functional, organism-based
Candida albicans [30] = test: Antimicrobial activity against Candida albicans assessed as inhibition of visible growth after 24 hrs by disc-diffusion method; format: functional, organism-based

Cc1nc(N)sc1Sc1nc2ccc(Cl)cc2c(=O)n1Cc1ccccc1
pIC50 (Dihydrofolate reductase): 5.30
zone of inhibition at 200 µg/disc (Staphylococcus aureus [1]): 18 mm
zone of inhibition at 200 µg/disc (Bacillus subtilis [2]): 19 mm
zone of inhibition at 200 µg/disc (Escherichia coli [3]): 12 mm
zone of inhibition at 200 µg/disc (Pseudomonas aeruginosa [4]): 8 mm
zone of inhibition at 200 µg/disc (Candida albicans [5]): 8 mm
Activity (Staphylococcus aureus [6]): Active
Activity (Bacillus subtilis [7]): Active
inhibition of growth at 10 µM (K562): 17.6%
inhibition of growth at 10 µM [8]: 16%
inhibition of growth at 10 µM [9]: 20.8%
inhibition of growth at 10 µM (SR): 16.1%
inhibition of growth at 10 µM [10]: 16.8%
inhibition of growth at 10 µM (NCI-H226): 10.4%
inhibition of growth at 10 µM (NCI-H23): 13.6%
inhibition of growth at 10 µM (NCI-H522): 35.4%
inhibition of growth at 10 µM (SF-268): 13.3%
inhibition of growth at 10 µM [11]: 23.2%
inhibition of growth at 10 µM (Malme-3M): 15.9%
inhibition of growth at 10 µM [12]: 15.2%
inhibition of growth at 10 µM [13]: 14.9%
inhibition of growth at 10 µM [14]: 20.9%
inhibition of growth at 10 µM [15]: 36.4%
inhibition of growth at 10 µM [16]: 15.8%
inhibition of growth at 10 µM (T47D): 14.7%

Cc1ccc2nc(Sc3sc(N)nc3C)n(-c3ccc(Cl)cc3)c(=O)c2c1
pIC50 (Dihydrofolate reductase): 5.15
zone of inhibition at 200 µg/disc (Staphylococcus aureus [1]): 8 mm
zone of inhibition at 200 µg/disc (Bacillus subtilis [2]): 8 mm
zone of inhibition at 200 µg/disc (Escherichia coli [3]): 8 mm
zone of inhibition at 200 µg/disc (Pseudomonas aeruginosa [4]): 8 mm
zone of inhibition at 200 µg/disc (Candida albicans [5]): 8 mm
inhibition of growth at 10 µM (K562): 15.6%
inhibition of growth at 10 µM [8]: 19%
inhibition of growth at 10 µM (SR): 49.2%
inhibition of growth at 10 µM (A549): 16.9%
inhibition of growth at 10 µM [10]: 43.3%
inhibition of growth at 10 µM (NCI-H23): 10.1%
inhibition of growth at 10 µM [17]: 22.8%
inhibition of growth at 10 µM [18]: 27.7%
inhibition of growth at 10 µM (HT-29): 11.7%
inhibition of growth at 10 µM (KM12): 24.6%
inhibition of growth at 10 µM (SF-268): 13.2%
inhibition of growth at 10 µM [19]: 18.2%
inhibition of growth at 10 µM [20]: 13.9%
inhibition of growth at 10 µM (SNB-19): 11.6%
inhibition of growth at 10 µM (U-251): 21.5%
inhibition of growth at 10 µM [11]: 16.5%
inhibition of growth at 10 µM (M14): 15.6%
inhibition of growth at 10 µM (SK-MEL-5): 16.3%
inhibition of growth at 10 µM [21]: 13.6%
inhibition of growth at 10 µM [12]: 26%
inhibition of growth at 10 µM [22]: 12.1%
inhibition of growth at 10 µM [23]: 10.8%
inhibition of growth at 10 µM [24]: 17.5%
inhibition of growth at 10 µM (786-0): 29.3%
inhibition of growth at 10 µM (A498): 53%
inhibition of growth at 10 µM (CAKI-1): 11.2%
inhibition of growth at 10 µM [25]: 28.5%
inhibition of growth at 10 µM (SN12C): 12.8%
inhibition of growth at 10 µM [15]: 46%
inhibition of growth at 10 µM [16]: 28.6%
inhibition of growth at 10 µM (MDA-MB-231): 13%
inhibition of growth at 10 µM [26]: 12.6%
inhibition of growth at 10 µM [27]: 33.1%
inhibition of growth at 10 µM (T47D): 12.4%

GENTAMICIN
inhibition zone (IZ) (Staphylococcus aureus [1]): 27 mm
inhibition zone (IZ) (Bacillus subtilis [2]): 25 mm
inhibition zone (IZ) (Escherichia coli [3]): 18 mm
inhibition zone (IZ) (Pseudomonas aeruginosa [4]): 21 mm
inhibition zone (IZ) (Candida albicans [5]): 19 mm
Activity (Staphylococcus aureus [6]): Active
Activity (Bacillus subtilis [7]): Active
Activity (Escherichia coli [28]): Active
Activity (Pseudomonas aeruginosa [29]): Active
Activity (Candida albicans [30]): Active
